In US8063220B2, “Sulfonyl-quinoline derivatives” (Richter Gedeon Nyrt., priority 2007, dated 2011):

Legend:
mGluR1 receptors = mGluR1 receptors (Homo sapiens, UniProt Q13255); assay: Activity on mGluR1 receptors (test not specified)
mGluR5 receptors = mGluR5 receptors (Homo sapiens, UniProt P41594); assay: Activity on mGluR5 receptors (test not specified)
rat mGluR1 = biological target: T1, rat mGluR1 (Rattus norvegicus, UniProt P23385); assay: MGluR1 receptor binding test ([3H]R214127 displacement, rat cerebellar membrane preparation); details: rat mGluR1, [3H]R214127 3 nM; read-out: mGlu1 Ki
T1 construct: rat cerebellar membrane preparation was used; from tissue; host or cells: rat cerebellum (membrane preparation)
T1 sequence (P23385 19-1199): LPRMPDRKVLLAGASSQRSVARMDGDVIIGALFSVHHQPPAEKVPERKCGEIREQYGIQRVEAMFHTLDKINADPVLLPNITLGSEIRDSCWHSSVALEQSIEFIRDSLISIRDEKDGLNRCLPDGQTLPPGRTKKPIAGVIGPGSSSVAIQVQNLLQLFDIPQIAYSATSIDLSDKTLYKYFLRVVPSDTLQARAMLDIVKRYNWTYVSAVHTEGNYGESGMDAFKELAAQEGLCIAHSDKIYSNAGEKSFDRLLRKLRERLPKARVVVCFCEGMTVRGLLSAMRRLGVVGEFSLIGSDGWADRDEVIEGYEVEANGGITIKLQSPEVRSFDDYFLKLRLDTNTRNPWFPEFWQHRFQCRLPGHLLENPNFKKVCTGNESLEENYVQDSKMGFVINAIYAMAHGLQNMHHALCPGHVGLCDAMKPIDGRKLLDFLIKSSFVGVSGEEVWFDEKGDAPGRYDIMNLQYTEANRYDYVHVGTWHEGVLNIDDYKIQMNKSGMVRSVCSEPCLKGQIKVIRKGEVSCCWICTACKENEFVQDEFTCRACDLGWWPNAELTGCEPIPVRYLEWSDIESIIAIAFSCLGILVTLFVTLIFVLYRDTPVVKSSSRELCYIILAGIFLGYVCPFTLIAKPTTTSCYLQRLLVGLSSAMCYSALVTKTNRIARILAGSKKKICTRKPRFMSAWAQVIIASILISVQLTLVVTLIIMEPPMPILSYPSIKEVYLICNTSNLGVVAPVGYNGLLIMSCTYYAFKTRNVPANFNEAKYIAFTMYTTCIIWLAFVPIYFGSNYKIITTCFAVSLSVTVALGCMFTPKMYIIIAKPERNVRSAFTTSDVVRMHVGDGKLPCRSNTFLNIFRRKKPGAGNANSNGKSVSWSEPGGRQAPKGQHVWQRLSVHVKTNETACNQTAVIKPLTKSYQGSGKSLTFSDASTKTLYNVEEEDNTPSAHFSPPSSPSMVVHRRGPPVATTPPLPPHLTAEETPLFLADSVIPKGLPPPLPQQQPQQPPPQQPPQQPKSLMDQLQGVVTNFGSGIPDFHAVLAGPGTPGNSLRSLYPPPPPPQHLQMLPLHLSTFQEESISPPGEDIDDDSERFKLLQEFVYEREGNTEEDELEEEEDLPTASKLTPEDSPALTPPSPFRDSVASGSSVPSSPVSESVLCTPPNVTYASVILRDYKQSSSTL
Outline: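 Rat cerebellar membranes with 3 nM [3H]R214127; nonspecific binding defined by 1 μM R214127. IC50 from displacement curves by nonlinear regression, converted to Ki by Cheng–Prusoff.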

rat mGluR5 = biological target: T2, rat mGluR5 (Rattus norvegicus, UniProt P31424); assay: MGluR5 receptor binding test ([3H]-M-MPEP displacement, rat cerebro-cortical membrane preparation); details: rat mGluR5, [3H]-M-MPEP 2 nM; read-out: mGlu5 Ki
T2 construct: Rat cerebro-cortical membrane preparation was used; from tissue; host or cells: rat cerebral cortex (membrane preparation)
T2 sequence (P31424 21-1203): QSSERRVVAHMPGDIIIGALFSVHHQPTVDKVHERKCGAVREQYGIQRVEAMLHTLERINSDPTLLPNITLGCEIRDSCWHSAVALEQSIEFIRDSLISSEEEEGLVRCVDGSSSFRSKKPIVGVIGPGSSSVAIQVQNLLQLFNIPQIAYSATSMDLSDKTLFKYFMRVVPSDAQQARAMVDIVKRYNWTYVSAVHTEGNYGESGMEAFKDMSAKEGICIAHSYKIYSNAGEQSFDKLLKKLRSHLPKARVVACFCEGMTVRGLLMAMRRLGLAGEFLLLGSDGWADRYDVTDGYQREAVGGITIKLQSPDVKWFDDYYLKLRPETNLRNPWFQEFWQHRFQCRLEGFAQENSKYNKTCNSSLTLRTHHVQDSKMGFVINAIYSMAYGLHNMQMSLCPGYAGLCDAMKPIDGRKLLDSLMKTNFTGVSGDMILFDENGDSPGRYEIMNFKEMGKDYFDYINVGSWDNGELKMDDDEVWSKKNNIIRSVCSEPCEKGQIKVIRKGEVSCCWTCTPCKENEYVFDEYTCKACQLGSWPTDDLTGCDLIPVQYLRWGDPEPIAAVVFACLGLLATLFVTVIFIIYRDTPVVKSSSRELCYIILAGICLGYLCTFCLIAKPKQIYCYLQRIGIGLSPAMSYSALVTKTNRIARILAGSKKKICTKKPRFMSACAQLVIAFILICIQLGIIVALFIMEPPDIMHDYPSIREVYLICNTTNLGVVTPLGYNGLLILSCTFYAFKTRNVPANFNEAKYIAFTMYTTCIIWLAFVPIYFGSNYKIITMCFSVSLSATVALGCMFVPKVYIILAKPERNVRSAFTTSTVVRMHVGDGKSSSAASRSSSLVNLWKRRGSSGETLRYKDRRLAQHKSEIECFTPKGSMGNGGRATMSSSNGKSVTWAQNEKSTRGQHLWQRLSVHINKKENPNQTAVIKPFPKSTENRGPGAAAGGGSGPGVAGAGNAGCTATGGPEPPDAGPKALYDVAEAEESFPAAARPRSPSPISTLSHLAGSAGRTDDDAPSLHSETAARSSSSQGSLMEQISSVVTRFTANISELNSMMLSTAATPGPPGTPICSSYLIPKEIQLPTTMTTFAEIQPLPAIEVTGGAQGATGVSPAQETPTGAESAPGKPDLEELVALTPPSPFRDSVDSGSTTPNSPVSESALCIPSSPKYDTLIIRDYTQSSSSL
Description: Rat cerebro-cortical membrane preparation was used to determine the binding characteristics of reference compounds and novel compounds to the rat mGluR5. The A18 cell line expressing hmGluR5a (purchased from Euroscreen) was used to determine binding characteristics of the chemical compounds to the human mGluR5a receptor. [3H]-M-MPEP (2 nM) was used as radioligand. The nonspecific binding was determined in the presence of 10 μM M-MPEP.

Chain of mGluR5 receptors (P41594 21-1212): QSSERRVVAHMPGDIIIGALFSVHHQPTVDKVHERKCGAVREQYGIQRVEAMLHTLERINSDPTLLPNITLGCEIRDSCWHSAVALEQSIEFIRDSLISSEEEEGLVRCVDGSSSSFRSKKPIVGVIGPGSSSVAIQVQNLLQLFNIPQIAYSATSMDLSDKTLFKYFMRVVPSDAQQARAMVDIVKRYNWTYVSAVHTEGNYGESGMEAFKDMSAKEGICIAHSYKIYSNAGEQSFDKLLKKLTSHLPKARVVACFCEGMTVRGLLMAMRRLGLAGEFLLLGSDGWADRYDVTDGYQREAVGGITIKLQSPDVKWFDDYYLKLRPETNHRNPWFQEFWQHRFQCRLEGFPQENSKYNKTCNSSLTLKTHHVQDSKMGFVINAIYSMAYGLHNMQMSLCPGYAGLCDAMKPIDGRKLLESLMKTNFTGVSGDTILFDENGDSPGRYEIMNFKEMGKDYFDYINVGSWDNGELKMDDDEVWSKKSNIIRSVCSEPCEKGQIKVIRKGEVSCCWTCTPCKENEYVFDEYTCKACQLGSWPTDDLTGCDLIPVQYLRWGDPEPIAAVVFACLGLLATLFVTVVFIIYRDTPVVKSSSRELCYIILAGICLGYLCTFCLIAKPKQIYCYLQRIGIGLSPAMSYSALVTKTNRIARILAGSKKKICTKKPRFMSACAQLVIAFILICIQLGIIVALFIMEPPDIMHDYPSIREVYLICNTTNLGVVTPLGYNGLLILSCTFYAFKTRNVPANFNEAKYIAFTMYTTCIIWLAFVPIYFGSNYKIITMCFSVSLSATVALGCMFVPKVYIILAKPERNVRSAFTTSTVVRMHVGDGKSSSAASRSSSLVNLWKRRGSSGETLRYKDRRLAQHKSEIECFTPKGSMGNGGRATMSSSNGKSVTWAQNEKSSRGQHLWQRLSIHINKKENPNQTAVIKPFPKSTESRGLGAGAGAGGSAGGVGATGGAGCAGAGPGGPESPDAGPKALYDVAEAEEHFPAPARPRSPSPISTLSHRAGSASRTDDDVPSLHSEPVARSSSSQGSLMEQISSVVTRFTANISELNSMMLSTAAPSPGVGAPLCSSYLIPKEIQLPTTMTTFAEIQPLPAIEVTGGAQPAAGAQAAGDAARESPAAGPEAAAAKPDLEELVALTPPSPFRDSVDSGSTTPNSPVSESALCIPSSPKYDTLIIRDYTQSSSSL
Chain of mGluR1 receptors (Q13255 19-1194): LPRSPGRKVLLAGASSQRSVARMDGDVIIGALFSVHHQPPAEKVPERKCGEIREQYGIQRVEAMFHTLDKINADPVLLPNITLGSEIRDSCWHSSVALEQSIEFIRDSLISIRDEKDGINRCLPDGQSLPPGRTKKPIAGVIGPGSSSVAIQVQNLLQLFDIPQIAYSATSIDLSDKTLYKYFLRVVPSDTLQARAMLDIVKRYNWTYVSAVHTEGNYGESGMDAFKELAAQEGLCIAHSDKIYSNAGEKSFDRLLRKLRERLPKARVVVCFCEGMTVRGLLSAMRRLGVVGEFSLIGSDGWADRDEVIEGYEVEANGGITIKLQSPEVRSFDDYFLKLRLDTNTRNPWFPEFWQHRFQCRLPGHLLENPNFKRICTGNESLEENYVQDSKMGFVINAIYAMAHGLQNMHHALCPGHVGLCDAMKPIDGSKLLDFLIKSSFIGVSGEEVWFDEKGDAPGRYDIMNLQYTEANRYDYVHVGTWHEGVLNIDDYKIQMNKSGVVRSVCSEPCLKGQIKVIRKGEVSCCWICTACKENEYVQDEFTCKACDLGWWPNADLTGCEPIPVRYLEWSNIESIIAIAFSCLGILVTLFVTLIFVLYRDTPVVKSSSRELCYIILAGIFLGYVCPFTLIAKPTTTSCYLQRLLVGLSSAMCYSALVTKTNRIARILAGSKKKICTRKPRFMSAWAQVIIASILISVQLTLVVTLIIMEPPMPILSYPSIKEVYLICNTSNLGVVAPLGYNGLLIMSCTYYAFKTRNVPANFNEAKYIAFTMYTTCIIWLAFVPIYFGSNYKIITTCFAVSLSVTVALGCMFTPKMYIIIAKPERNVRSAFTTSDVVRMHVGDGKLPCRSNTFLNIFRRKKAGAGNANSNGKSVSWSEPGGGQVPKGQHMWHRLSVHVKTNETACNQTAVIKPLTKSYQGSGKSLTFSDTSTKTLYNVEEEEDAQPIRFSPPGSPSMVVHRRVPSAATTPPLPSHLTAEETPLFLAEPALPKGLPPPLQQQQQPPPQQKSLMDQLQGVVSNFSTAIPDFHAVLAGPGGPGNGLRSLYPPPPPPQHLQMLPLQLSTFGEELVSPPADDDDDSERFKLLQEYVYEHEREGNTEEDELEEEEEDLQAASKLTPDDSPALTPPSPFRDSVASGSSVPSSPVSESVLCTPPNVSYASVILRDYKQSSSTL

SMILES	activity on mGluR1 receptors (mGluR1 receptors)	activity on mGluR5 receptors (mGluR5 receptors)	Ki (rat mGluR1)	Ki (rat mGluR5)
O=S(=O)(c1ccccc1)c1cnc2c(C(F)(F)F)cccc2c1-c1ccccc1 [3-benzenesulfonyl-4-phenyl-8-trifluoromethyl-quinoline]	inactive	inactive		
O=S(=O)(c1ccc(F)c(F)c1)c1cnc2cc(F)ccc2c1-c1ccc(Cl)cc1 [Compound 247]			> 500 nM	< 200 nM
N#Cc1cc(C#N)cc(S(=O)(=O)c2cnc3cc(F)ccc3c2-c2ccc(F)cc2)c1 [Compound 249]			> 500 nM	< 200 nM
O=S(=O)(c1ccc(F)c(F)c1)c1cnc2cc(F)ccc2c1-c1ccc(F)c(F)c1 [Compound 251]			> 500 nM	< 200 nM
N#Cc1cc(C#N)cc(S(=O)(=O)c2cnc3cc(F)ccc3c2-c2ccc(F)c(F)c2)c1 [Compound 256]			> 500 nM	< 200 nM
O=S(=O)(c1cc(Cl)cc(Cl)c1)c1cnc2cc(F)ccc2c1-c1ccccc1F [Compound 257]			> 500 nM	< 200 nM
O=S(=O)(c1ccc(F)c(F)c1)c1cnc2c(F)cccc2c1-c1cccc(Cl)c1 [Compound 259]			> 500 nM	< 200 nM
O=S(=O)(c1ccc(F)c(F)c1)c1cnc2ccccc2c1-c1ccc(Cl)c(Cl)c1 [Compound 260]			> 500 nM	< 200 nM
O=S(=O)(c1ccc(F)c(F)c1)c1cnc2cc(F)ccc2c1-c1ccccc1F [Compound 261]			> 500 nM	< 200 nM
N#Cc1cccc(S(=O)(=O)c2cnc3ccccc3c2-c2cccc(Cl)c2)c1 [Compound 265]			> 500 nM	< 200 nM
N#Cc1cc(F)cc(S(=O)(=O)c2cnc3ccccc3c2-c2ccc(F)c(F)c2)c1 [Compound 266]			> 500 nM	< 200 nM
N#Cc1cc(F)cc(S(=O)(=O)c2cnc3cc(F)ccc3c2-c2ccc(Cl)cc2)c1 [Compound 268]			> 500 nM	< 200 nM
N#Cc1cc(F)cc(S(=O)(=O)c2cnc3cc(Cl)ccc3c2-c2ccc(Cl)cc2)c1 [Compound 269]			> 500 nM	< 200 nM
N#Cc1cc(F)cc(S(=O)(=O)c2cnc3ccccc3c2-c2ccc(F)cc2)c1 [Compound 271]			> 500 nM	< 200 nM
N#Cc1cc(F)cc(S(=O)(=O)c2cnc3ccccc3c2-c2ccc(Cl)cc2)c1 [Compound 272]			> 500 nM	< 200 nM
N#Cc1cc(S(=O)(=O)c2cnc3ccccc3c2-c2ccc(Cl)cc2)ccc1F [Compound 273]			> 500 nM	< 200 nM
N#Cc1cc(S(=O)(=O)c2cnc3cc(F)ccc3c2-c2ccc(Cl)cc2)ccc1F [Compound 274]			> 500 nM	< 200 nM
N#Cc1cc(S(=O)(=O)c2cnc3cc(F)ccc3c2-c2ccc(F)cc2)ccc1F [Compound 275]			> 500 nM	< 200 nM
N#Cc1cc(F)cc(S(=O)(=O)c2cnc3c(N)cccc3c2-c2ccc(F)cc2)c1 [Compound 278]			> 500 nM	< 200 nM
N#Cc1cc(F)cc(S(=O)(=O)c2cnc3c(N)cccc3c2-c2cccc(F)c2)c1 [Compound 279]			> 500 nM	< 200 nM

More lines, now with the values ahead:

activity on mGluR1 receptors (mGluR1 receptors)	activity on mGluR5 receptors (mGluR5 receptors)	Ki (rat mGluR1)	Ki (rat mGluR5)	SMILES
		> 500 nM	< 200 nM	O=S(=O)(c1ccc(F)c(F)c1)c1cnc2c(F)cccc2c1-c1ccccc1F [Compound 243]
		> 500 nM	< 200 nM	N#Cc1cc(F)cc(S(=O)(=O)c2cnc3cc(F)ccc3c2-c2cccc(Cl)c2)c1 [Compound 244]
		200 to 500 nM	< 200 nM	N#Cc1cccc(S(=O)(=O)c2cnc3cc(F)ccc3c2-c2cc(F)cc(F)c2)c1 [Compound 245]
		> 500 nM	< 200 nM	N#Cc1cccc(S(=O)(=O)c2cnc3c(F)cccc3c2-c2cccc(Cl)c2)c1 [Compound 246]
		200 to 500 nM	< 200 nM	O=S(=O)(c1ccc(Cl)c(Cl)c1)c1cnc2cc(Cl)ccc2c1-c1ccc(F)c(F)c1 [Compound 248]
		200 to 500 nM	< 200 nM	N#Cc1cc(F)cc(S(=O)(=O)c2cnc3cc(Cl)ccc3c2-c2cccc(Cl)c2)c1 [Compound 250]
		200 to 500 nM	< 200 nM	O=S(=O)(c1cc(Cl)cc(Cl)c1)c1cnc2c(F)c(Cl)ccc2c1-c1cccc(Cl)c1 [Compound 252]
		200 to 500 nM	< 200 nM	N#Cc1cccc(S(=O)(=O)c2cnc3c(F)c(Cl)ccc3c2-c2cccc(Cl)c2)c1 [Compound 253]
		200 to 500 nM	< 200 nM	N#Cc1cccc(S(=O)(=O)c2cnc3cc(Cl)ccc3c2-c2cccc(Cl)c2)c1 [Compound 254]
		200 to 500 nM	< 200 nM	O=S(=O)(c1cc(Cl)cc(Cl)c1)c1cnc2cc(Cl)ccc2c1-c1ccccc1F [Compound 255]
		200 to 500 nM	< 200 nM	O=S(=O)(c1ccc(F)c(Cl)c1)c1cnc2cc(F)ccc2c1-c1cccc(Cl)c1 [Compound 258]
		< 200 nM	< 200 nM	O=S(=O)(c1ccc(F)c(Cl)c1)c1cnc2cc(Cl)ccc2c1-c1cc(F)cc(F)c1 [Compound 262]
		200 to 500 nM	< 200 nM	O=S(=O)(c1cc(Cl)cc(Cl)c1)c1cnc2cc(Cl)ccc2c1-c1cccc(Cl)c1 [Compound 263]
		200 to 500 nM	< 200 nM	Nc1ccc2c(-c3cccc(F)c3)c(S(=O)(=O)c3ccc(F)c(F)c3)cnc2c1 [Compound 264, 7-Amino-3-(3,4-difluoro-benzenesulfonyl)-4-(3-fluoro-phenyl)-quinoline]
		200 to 500 nM	< 200 nM	N#Cc1cc(S(=O)(=O)c2cnc3cc(Cl)ccc3c2-c2ccc(F)cc2)ccc1F [Compound 276]
		200 to 500 nM	< 200 nM	N#Cc1cc(S(=O)(=O)c2cnc3cc(Cl)ccc3c2-c2ccc(Cl)cc2)ccc1F [Compound 277]
